Results on one molecule are retold here after US9873883B2, “Glyphosate resistant plants and associated methods” (Dow AgroSciences LLC, priority 2012, dated 2018).

Test [1] deals with bacterial EPSP synthase DGT-30 (GENBANK ZP_02156189.1) variant DGT-30 v6 (G→A at residue 96), SEQ ID NO:13 (Shewanella benthica, UniProt A9CYU9, G96A). Put plainly: In vitro kinetic assay (inorganic phosphate production, malachite green). The note with it: IC50 (glyphosate). The source says: (§1) The novel DGT-14, DGT-12, DGT-18, DGT-29 and DGT-30 enzymes were obtained and the glycine to alanine mutation was introduced into the EPSP synthase enzymes at a location analogous to the G96A location described for the E. coli version of the EPSP synthase enzyme. The DGT-14 protein sequence was modified by introducing an alanine to replace the endogenous glycine of GENBANK ACC NO: ZP_01452683 at amino acid residue 101, thereby resulting in SEQ ID NO:1. The DGT-12 protein sequence was modified by introducing an alanine to replace the endogenous glycine of GENBANK ACC NO: ZP_01622155.1 at amino acid residue 111, thereby resulting in SEQ ID NO:7. The DGT-18 protein sequence was modified by introducing an alanine to replace the endogenous glycine of GENBANK ACC NO: NP_928909.1 at amino acid residue 96, thereby resulting in SEQ ID NO:9. The DGT-29 protein sequence was modified by introducing an alanine to replace the endogenous glycine of GENBANK ACC NO: YP_322772.1 at amino acid residue 96, thereby resulting in SEQ ID NO:11. The DGT-30 protein sequence was modified by introducing an alanine to replace the endogenous glycine of GENBANK ACC NO: ZP_02156189.1 at amino acid residue 96, thereby resulting in SEQ ID NO:13.
(§2) The synthesized genes were cloned into the pET28 expression vector.
(§3) Recombinant DGT proteins were overexpressed in Rosetta2™ (DE3) cells (Novagen, Madison, Wis.) from the constructs described above. A single colony was used to inoculate 50 mL starter cultures of LB containing chloramphenicol (25 μg/mL) and kanamycin (50 μg/mL) which were cultivated overnight at 37° C. The overnight cultures were used to inoculate 1 L of LB containing chloramphenicol (25 μg/mL) and kanamycin (50 μg/mL). The cultures were grown at 37° C. to an O.D.600=0.6 then placed in an ice water bath for 10 minutes. Expression of the target proteins was achieved by addition of IPTG to a final concentration of 500 μM. Induction was allowed to proceed overnight at 20° C. followed by harvesting via centrifugation at 8,000 rpm for 20 minutes. The cell pellets were stored at −80° C. until required for purification. All purification steps were carried out at 4° C.

Test [2] has as its target bacterial EPSP synthase DGT-29 (GENBANK YP_322772.1) variant DGT-29 v6 (G→A at residue 96), SEQ ID NO:11 (Trichormus variabilis, UniProt Q3MAV9, G96A). Described as above. Conditions: IC50 (glyphosate), values greater than 50 are estimates.
Description: as §1, §2, §3

For test [3], the target named is bacterial EPSP synthase DGT-18 (GENBANK NP_928909.1) variant DGT-18 v6 (G→A at residue 96), SEQ ID NO:9 (Photorhabdus laumondii, UniProt Q7N6D5, G96A). The description is as above. Conditions: IC50 (glyphosate).
Description: as §1, §2, §3

Test [4] deals with Arabidopsis transformed with TraP5 v1::dgt-14 (pDAB102787). Put plainly: Postemergence glyphosate tolerance, visual injury. The format is in vivo, Arabidopsis thaliana. Conditions: 2 weeks after application.
The target of test [5] is Mariprofundus ferrooxydans EPSP synthase DGT-14 variant DGT-14 v6 (G101A), SEQ ID NO:1 (Mariprofundus ferrooxydans, UniProt Q0EYT4, G101A). Briefly: In vitro kinetic assay (inorganic phosphate production, malachite green). The format is biochemical. Conditions: IC50 (glyphosate), values greater than 50 are estimates.
A further test relates to T0 corn. Briefly: Postemergence herbicide tolerance in dgt-14 transformed T0 corn. Conditions: example written in present tense. The format is in vivo, Zea mays. How it is done:
T0 events are allowed to acclimate in the greenhouse and are grown until two to four new, normal looking leaves emerge from the whorl (i.e., plants that transition from tissue culture to greenhouse growing conditions). Plants are grown at 27° C. under 16 hour light:8 hour dark conditions in the greenhouse. The plants are then treated with commercial formulations of Durango DMA™ (containing the herbicide glyphosate) with the addition of 2% w/v ammonium-sulfate. Herbicide applications are made with a track sprayer at a spray volume of 187 L/ha, 50-cm spray height. T0 plants are sprayed with a range of glyphosate from 280-4480 g ae/ha glyphosate, which is capable of significant injury to untransformed corn lines. A lethal dose is defined as the rate that causes >95% injury to the B104 inbred.
Selected T0 plants are selfed or backcrossed for further characterization in the next generation. Additional experiments include a 100 plant progeny test which is conducted on chosen dgt-14 lines containing the T1 plants. All plants are sprayed with 140-1120 g ae/ha glufosinate or 105-1680 g ae/ha glyphosate as previously described. […] At fourteen DAT, resistant and sensitive plants are counted to determine the percentage of lines that segregated as a single locus, dominant Mendelian trait (3R:1S) as determined by Chi square analysis. […]

SMILES strings stand for the structures. Values joined by “and” are separate entries in the source; they are usually repeats but may differ in a detail not shown here. Identical values can stand only once.

As a reminder, the IC50 is the concentration needed to halve the response being measured. Consider `O=C(O)CNCP(=O)(O)O` [glyphosate, N-(phosphonomethyl)glycine], for which the half-inhibitory concentration (IC50) was 7.86 mM in test [1] (at 60 μM PEP); 15.6 mM and 15.5 mM in test [1] (at 1 mM PEP); > 80 mM in test [2] (*determined at 100 μM PEP); > 80 mM in test [2] (at 1 mM PEP); 9.24 mM in test [3] (at 60 μM PEP); 33.2 mM in test [3] (at 1 mM PEP). Moreover, the IC50 in test [5] (at 60 μM PEP) and in test [5] (at 1 mM PEP) was > 80 mM in each case. Further, the “Visual % injury (Ave)” value in test [4] (T2, 840 g ae/ha) is listed as 90.0%; in test [4] (T3, 840 g ae/ha) it was 86.3%. In addition, the “glyphosate concentration controlling non-transformed plants” value in the test with T0 corn is ≥ 280 g ae/ha.
